In PubChem BioAssay (NCI):
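Tested at 5 concentrations; 48 h exposure; 96-well plates; endpoints linearly interpolated, else capped at highest concentration. Definition used: TGI = concentration required for complete inhibition of growth.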

Legend:
Test in all cases: DTP human tumour cell line panel, 48 h
786-0 renal = tested on: 786-0 renal
A498 renal = tested on: A498 renal
A549 NSCLC = tested on: A549 NSCLC
ACHN renal = tested on: ACHN renal
BT-549 breast = tested on: BT-549 breast
CAKI-1 renal = tested on: CAKI-1 renal
COLO 205 colon = tested on: COLO 205 colon
DU-145 prostate = tested on: DU-145 prostate
EKVX NSCLC = tested on: EKVX NSCLC
HCC-2998 colon = tested on: HCC-2998 colon
HCT-116 colon = tested on: HCT-116 colon
HCT-15 colon = tested on: HCT-15 colon
HOP-62 NSCLC = tested on: HOP-62 NSCLC
HOP-92 NSCLC = tested on: HOP-92 NSCLC
HS 578T breast = tested on: HS 578T breast
HT29 colon = tested on: HT29 colon
IGROV1 ovarian = tested on: IGROV1 ovarian
K-562 leukemia = tested on: K-562 leukemia
KM12 colon = tested on: KM12 colon
M14 melanoma = tested on: M14 melanoma
MALME-3M melanoma = tested on: MALME-3M melanoma
MCF7 breast = tested on: MCF7 breast
MDA-MB-231 breast = tested on: MDA-MB-231 breast
MDA-MB-435 = tested on: MDA-MB-435
MDA-N = tested on: MDA-N
MOLT-4 leukemia = tested on: MOLT-4 leukemia
NCI-H23 lung = tested on: NCI-H23 lung
NCI-H460 lung = tested on: NCI-H460 lung
NCI-H522 lung = tested on: NCI-H522 lung
NCI/ADR-RES ovarian = tested on: NCI/ADR-RES ovarian
OVCAR-3 ovarian = tested on: OVCAR-3 ovarian
OVCAR-4 ovarian = tested on: OVCAR-4 ovarian
OVCAR-5 ovarian = tested on: OVCAR-5 ovarian
OVCAR-8 ovarian = tested on: OVCAR-8 ovarian
PC-3 prostate = tested on: PC-3 prostate
RPMI-8226 leukemia = tested on: RPMI-8226 leukemia
RXF 393 renal = tested on: RXF 393 renal
SF-268 CNS = tested on: SF-268 CNS
SF-295 CNS = tested on: SF-295 CNS
SK-MEL-2 melanoma = tested on: SK-MEL-2 melanoma
SK-MEL-28 melanoma = tested on: SK-MEL-28 melanoma
SK-MEL-5 melanoma = tested on: SK-MEL-5 melanoma
SK-OV-3 ovarian = tested on: SK-OV-3 ovarian
SNB-19 CNS = tested on: SNB-19 CNS
SNB-75 CNS = tested on: SNB-75 CNS
SW-620 colon = tested on: SW-620 colon
T-47D breast = tested on: T-47D breast
TK-10 renal = tested on: TK-10 renal
U251 CNS = tested on: U251 CNS
UACC-257 melanoma = tested on: UACC-257 melanoma
UACC-62 melanoma = tested on: UACC-62 melanoma
UO-31 renal = tested on: UO-31 renal
CCRF-CEM leukemia = tested on: CCRF-CEM leukemia
LOX IMVI melanoma = tested on: LOX IMVI melanoma
NCI-H226 lung = tested on: NCI-H226 lung
SF-539 CNS = tested on: SF-539 CNS
SN12C renal = tested on: SN12C renal

Work on C/C=C\C(CC(=O)NCCc1c[nH]c2ccccc12)CC(=O)OC (stereo not given) yielded a TGI (786-0 renal) of over 100 µM, a TGI (A498 renal) of over 100 µM and a TGI (A549 NSCLC) of over 100 µM. The TGI (ACHN renal) was over 100 µM, the TGI (BT-549 breast) was over 100 µM and the TGI (CAKI-1 renal) was over 100 µM. It also gave a TGI (COLO 205 colon) of over 100 µM, a TGI (DU-145 prostate) of over 100 µM and a TGI (EKVX NSCLC) of over 100 µM. For the same compound, the TGI (HCC-2998 colon) was over 100 µM, the TGI (HCT-116 colon) was over 100 µM and the TGI (HCT-15 colon) was over 100 µM. For the same compound, the TGI (HOP-62 NSCLC) was over 100 µM, the TGI (HOP-92 NSCLC) was over 100 µM and the TGI (HS 578T breast) was over 100 µM. The TGI (HT29 colon) was over 100 µM, the TGI (IGROV1 ovarian) was over 100 µM and the TGI (K-562 leukemia) was over 100 µM. For the same compound, the TGI (KM12 colon) was over 100 µM, the TGI (M14 melanoma) was over 100 µM and the TGI (MALME-3M melanoma) was over 100 µM. It also gave a TGI (MCF7 breast) of over 100 µM, a TGI (MDA-MB-231 breast) of over 100 µM and a TGI (MDA-MB-435) of over 100 µM. The TGI (MDA-N) was over 100 µM, the TGI (MOLT-4 leukemia) was over 100 µM and the TGI (NCI-H23 lung) was over 100 µM. The TGI (NCI-H460 lung) was over 100 µM, the TGI (NCI-H522 lung) was over 100 µM and the TGI (NCI/ADR-RES ovarian) was over 100 µM. For the same compound, the TGI (OVCAR-3 ovarian) was over 100 µM, the TGI (OVCAR-4 ovarian) was over 100 µM and the TGI (OVCAR-5 ovarian) was over 100 µM. It also gave a TGI (OVCAR-8 ovarian) of over 100 µM, a TGI (PC-3 prostate) of over 100 µM and a TGI (RPMI-8226 leukemia) of over 100 µM. For the same compound, the TGI (RXF 393 renal) was over 100 µM, the TGI (SF-268 CNS) was over 100 µM and the TGI (SF-295 CNS) was over 100 µM. It also gave a TGI (SK-MEL-2 melanoma) of over 100 µM, a TGI (SK-MEL-28 melanoma) of over 100 µM and a TGI (SK-MEL-5 melanoma) of over 100 µM. The TGI (SK-OV-3 ovarian) was over 100 µM, the TGI (SNB-19 CNS) was over 100 µM and the TGI (SNB-75 CNS) was over 100 µM. For the same compound, the TGI (SW-620 colon) was over 100 µM, the TGI (T-47D breast) was over 100 µM and the TGI (TK-10 renal) was over 100 µM. For the same compound, the TGI (U251 CNS) was over 100 µM, the TGI (UACC-257 melanoma) was over 100 µM and the TGI (UACC-62 melanoma) was over 100 µM. The TGI (UO-31 renal) was over 100 µM.
In the case of O=C(O)c1cc(Nc2c(O)c3c(c(O)c2Cl)C(=O)C=CC3=O)ccc1O, the TGI (786-0 renal) is reported as over 10 µM, the TGI (A498 renal) is reported as over 10 µM and the TGI (A549 NSCLC) is reported as over 10 µM. The TGI (ACHN renal) was over 10 µM, the TGI (BT-549 breast) was over 10 µM and the TGI (CAKI-1 renal) was over 10 µM. The TGI (CCRF-CEM leukemia) was over 10 µM, the TGI (COLO 205 colon) was over 10 µM and the TGI (DU-145 prostate) was over 10 µM. It also gave a TGI (EKVX NSCLC) of over 10 µM, a TGI (HCC-2998 colon) of over 10 µM and a TGI (HCT-116 colon) of over 10 µM. For the same compound, the TGI (HCT-15 colon) was over 10 µM, the TGI (HOP-62 NSCLC) was over 10 µM and the TGI (HOP-92 NSCLC) was over 10 µM. It also gave a TGI (HS 578T breast) of over 10 µM, a TGI (HT29 colon) of over 10 µM and a TGI (IGROV1 ovarian) of over 10 µM. It also gave a TGI (K-562 leukemia) of over 10 µM, a TGI (KM12 colon) of over 10 µM and a TGI (LOX IMVI melanoma) of over 10 µM. The TGI (M14 melanoma) was over 10 µM, the TGI (MALME-3M melanoma) was over 10 µM and the TGI (MCF7 breast) was over 10 µM. The TGI (MDA-MB-231 breast) was over 10 µM, the TGI (MDA-MB-435) was over 10 µM and the TGI (MDA-N) was over 10 µM. It also gave a TGI (MOLT-4 leukemia) of over 10 µM, a TGI (NCI-H226 lung) of over 10 µM and a TGI (NCI-H23 lung) of over 10 µM. For the same compound, the TGI (NCI-H460 lung) was over 10 µM, the TGI (NCI/ADR-RES ovarian) was over 10 µM and the TGI (OVCAR-3 ovarian) was over 10 µM. It also gave a TGI (OVCAR-4 ovarian) of over 10 µM, a TGI (OVCAR-5 ovarian) of over 10 µM and a TGI (OVCAR-8 ovarian) of over 10 µM. It also gave a TGI (PC-3 prostate) of over 10 µM, a TGI (SF-268 CNS) of over 10 µM and a TGI (SF-295 CNS) of over 10 µM. It also gave a TGI (SF-539 CNS) of over 10 µM, a TGI (SK-MEL-28 melanoma) of over 10 µM and a TGI (SK-MEL-5 melanoma) of over 10 µM. The TGI (SK-OV-3 ovarian) was over 10 µM, the TGI (SN12C renal) was over 10 µM and the TGI (SNB-19 CNS) was over 10 µM. It also gave a TGI (SNB-75 CNS) of over 10 µM, a TGI (SW-620 colon) of over 10 µM and a TGI (T-47D breast) of over 10 µM. It also gave a TGI (TK-10 renal) of over 10 µM, a TGI (U251 CNS) of over 10 µM and a TGI (UACC-257 melanoma) of over 10 µM. For the same compound, the TGI (UACC-62 melanoma) was over 10 µM and the TGI (UO-31 renal) was over 10 µM.
